System: peripheral mononeuropathy nerve injury-induced tactile allodynia
Test: Chung model of neuropathic pain (Chung surgery and von Frey test)
Format: in vivo, Sprague Dawley rats
Conditions: 100 mg/kg, i.v.; von Frey thresholds over 90 min, rat
Experimental: Chung model of neuropathic pain (Chung surgery and von Frey test). To test agents for activity against peripheral mononeuropathy nerve injury-induced tactile allodynia, male Sprague Dawley rats (wt. 120-160 g) were surgically prepared with unilateral tight ligation of spinal nerves L5 and L6 following the method of Kim and Chung (Kim S. H., Chung J. M. (1992) Pain, September; 50(3):355-63). After 3-4 weeks recovery, paw withdrawal to light touch was assessed as described by Chaplan et al. (Chaplan S. R., et al., (1994) J. Neurosci Methods, July; 53(1):55-63). […] After acclimation, baseline von Frey thresholds were assessed for the injured hindpaw at −15 min. […] Following drug administration, von Frey thresholds were measured at 15, 30, 60 and 90 min. Data were analyzed by a 2-way repeated measures analysis of variance followed by Dunnett's test (p<0.05). […]
Reversal of neuropathic pain behavior may be expressed as a percentage (0-100%) of the maximum possible effect, over and above the vehicle effects. […]
For example, a compound which immediately reversed neuropathic pain behavior to normal levels, such that animals only responded to the highest von Frey filament (15 g), and maintained normal levels through out the post-drug testing period (90 min) would be calculated as Δ% MPE=100%.

NCC1(CC(=O)O)CCCCC1 [Gabapentin, gabapentin, reference compound]
AUC (Δ % MPE): 50 (100 mg/kg, i.v.) Δ % MPE
